Reference: patent publication US10072011B2, “Substituted bridged urea analogs as sirtuin modulators” (GlaxoSmithKline Intellectual Property (No.2) Limited, priority 2014, dated 2018)
Read-outs that look alike come from different tables or passages of the source.

Target: T1, SIRT1 (Homo sapiens, UniProt Q96EB6)
T1 sequence (Q96EB6 1-747): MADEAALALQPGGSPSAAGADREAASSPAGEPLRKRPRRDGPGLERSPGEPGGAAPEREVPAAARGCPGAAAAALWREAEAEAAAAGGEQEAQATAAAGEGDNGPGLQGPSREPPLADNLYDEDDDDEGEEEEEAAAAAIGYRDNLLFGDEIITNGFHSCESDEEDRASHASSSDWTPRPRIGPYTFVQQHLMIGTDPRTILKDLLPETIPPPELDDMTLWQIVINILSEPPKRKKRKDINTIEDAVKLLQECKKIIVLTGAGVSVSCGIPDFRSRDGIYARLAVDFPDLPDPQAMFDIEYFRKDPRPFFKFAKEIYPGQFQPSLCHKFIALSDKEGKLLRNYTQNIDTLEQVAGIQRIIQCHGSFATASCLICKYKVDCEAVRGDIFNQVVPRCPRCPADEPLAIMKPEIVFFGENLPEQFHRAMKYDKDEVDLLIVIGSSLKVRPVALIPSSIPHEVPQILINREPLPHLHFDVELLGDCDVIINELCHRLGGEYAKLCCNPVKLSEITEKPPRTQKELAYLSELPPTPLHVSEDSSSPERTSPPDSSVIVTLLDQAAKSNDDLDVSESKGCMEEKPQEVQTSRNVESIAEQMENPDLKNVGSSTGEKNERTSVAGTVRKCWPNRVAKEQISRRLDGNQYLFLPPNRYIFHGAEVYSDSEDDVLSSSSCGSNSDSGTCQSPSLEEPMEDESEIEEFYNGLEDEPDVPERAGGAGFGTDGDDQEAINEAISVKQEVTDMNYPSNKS
Experiment: Trp mass spectrometry assay of SIRT1 activation (Ac-R-H-K-K(Ac)-W-NH2 peptide)
Type: biochemical
Conditions: for Emax: 25 min, read-out: TRP MAX RESP (percent maximum fold activation)
Procedure, shortened: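 Mass spectrometry read-out (OAADPR formed, or deacetylated Trp peptide) after a 25 min NAD-dependent deacetylation by E. coli-expressed His-SIRT1, stopped with formic acid.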

[1] = Trp peptide 0.5 μM, 120 μM βNAD+, 10 nM SIRT1, 25 min at 25° C., relative to control (100%)
[2] = Trp peptide 0.5 μM, 120 μM βNAD+, 10 nM SIRT1, 25 min at 25° C.

In the case of `C[C@@H](NC(=O)c1ccc2c(n1)N(C(=O)Nc1cc(OCC(=O)O)ccn1)[C@H]1CCN2C1)C(F)(F)F` [Example 265, 2-((2-((4S)-7-(((R)-1,1,1-trifluoropropan-2-yl)carbamoyl)-2,3,4,5-tetrahydro-1,4-methanopyrido[2,3-b][1,4]diazepine-5-carboxamido)pyridin-4-yl)oxy)acetic acid], the Emax [1] is reported as over 150% and the “TRP Activity (EC1.5, concentration of test compound that results in 150% activation of SIRT1)” value [2] is reported as “B (EC1.5 1-25 μM)”.
`C[C@@H](NC(=O)c1ccc2c(n1)N(C(=O)Nc1cc(OCCCO)ccn1)[C@H]1CCN2C1)C(F)(F)F` [Example 266, (4S)—N5-(4-(3-hydroxypropoxy)pyridin-2-yl)-N7-((R)-1,1,1-trifluoropropan-2-yl)-3,4-dihydro-1,4-methanopyrido[2,3-b][1,4]diazepine-5,7(2H)-dicarboxamide] was tested, and the Emax [1] was over 150% and the “TRP Activity (EC1.5, concentration of test compound that results in 150% activation of SIRT1)” value [2] was “A (EC1.5<1 μM)”.
In the case of `O=C(O)c1ccnc(NC(=O)N2c3nc(C(=O)NCC(F)(F)F)ccc3N3CC[C@H]2C3)c1` [Example 267, 2-((4S)-7-((2,2,2-trifluoroethyl)carbamoyl)-2,3,4,5-tetrahydro-1,4-methanopyrido[2,3-b][1,4]diazepine-5-carboxamido)isonicotinic acid], the Emax [1] is reported as over 150% and the “TRP Activity (EC1.5, concentration of test compound that results in 150% activation of SIRT1)” value [2] is reported as “B (EC1.5 1-25 μM)”.
In the case of `C[C@@H](NC(=O)c1ccc2c(n1)N(C(=O)Nc1cc(OCCN(C)C)ccn1)[C@H]1CCN2C1)C(F)(F)F` [Example 268, (4S)—N5-(4-(2-(dimethylamino)ethoxy)pyridin-2-yl)-N7-((R)-1,1,1-trifluoropropan-2-yl)-3,4-dihydro-1,4-methanopyrido[2,3-b][1,4]diazepine-5,7(2H)-dicarboxamide], the Emax [1] is reported as over 150% and the “TRP Activity (EC1.5, concentration of test compound that results in 150% activation of SIRT1)” value [2] is reported as “B (EC1.5 1-25 μM)”.
For `Cc1nc(NC(=O)N2c3nc(C(=O)N[C@H](C)C(F)(F)F)ccc3N3CC[C@H]2C3)ccc1F` [Example 269, (4S)—N5-(5-fluoro-6-methylpyridin-2-yl)-N7-((R)-1,1,1-trifluoropropan-2-yl)-3,4-dihydro-1,4-methanopyrido[2,3-b][1,4]diazepine-5,7(2H)-dicarboxamide], the Emax [1] was over 150% and the “TRP Activity (EC1.5, concentration of test compound that results in 150% activation of SIRT1)” value [2] was “A (EC1.5<1 μM)”.
`O=C(NCC(F)(F)F)c1ccc2c(n1)N(C(=O)Nc1cccc[n+]1[O-])[C@H]1CC[N+]2([O-])C1` [Example 275, (4S)-5-((1-oxidopyridin-2-yl)carbamoyl)-7-((2,2,2-trifluoroethyl)carbamoyl)-2,3,4,5-tetrahydro-1H-1,4-methanopyrido[2,3-b][1, 4]diazepine 1-oxide] was tested, and the Emax [1] was over 150% and the “TRP Activity (EC1.5, concentration of test compound that results in 150% activation of SIRT1)” value [2] was “C (EC1.5>25 μM)”.
For `C[C@@H](NC(=O)c1ccc2c(n1)N(C(=O)Cc1ccccn1)[C@H]1CCN2C1)C(F)(F)F` [Example 276, (4S)-5-(2-(pyridin-2-yl)acetyl)-N—((R)-1,1,1-trifluoropropan-2-yl)-2,3,4,5-tetrahydro-1,4-methanopyrido[2,3-b][1,4]diazepine-7-carboxamide], the Emax [1] was under 150% and the “TRP Activity (EC1.5, concentration of test compound that results in 150% activation of SIRT1)” value [2] was “C (EC1.5>25 μM)”.
For `O=C(Nc1ccc(Cl)cn1)N1c2nc(S(=O)(=O)NCC(F)(F)F)ccc2N2CC[C@H]1C2` [Example 277, (4S)—N-(5-chloropyridin-2-yl)-7-(N-(2,2,2-trifluoroethyl)sulfamoyl)-3,4-dihydro-1,4-methanopyrido[2,3-b][1,4]diazepine-5(2H)-carboxamide], the Emax was under 150% and the “TRP Activity (EC1.5, concentration of test compound that results in 150% activation of SIRT1)” value [2] was “C (EC1.5>25 μM)”.
With `O=C(OCC(F)(F)F)c1ccc2c(n1)N(C(=O)Nc1ccccn1)[C@H]1CCN2C1` [Example 278, (4S)-2,2,2-trifluoroethyl 5-(pyridin-2-ylcarbamoyl)-2,3,4,5-tetrahydro-1,4-methanopyrido[2,3-b][1,4]diazepine-7-carboxylate] the Emax [1] was over 150% and the “TRP Activity (EC1.5, concentration of test compound that results in 150% activation of SIRT1)” value [2] was “B (EC1.5 1-25 μM)”.
For `O=C(NCC(F)(F)F)c1nc2c(cc1Cl)N1CC[C@@H](C1)N2C(=O)Nc1ccccn1` [Example 279, (4S)-8-chloro-N5-(pyridin-2-yl)-N7-(2,2,2-trifluoroethyl)-3,4-dihydro-1,4-methanopyrido[2,3-b][1,4]diazepine-5,7(2H)-dicarboxamide], the Emax [1] was over 150% and the “TRP Activity (EC1.5, concentration of test compound that results in 150% activation of SIRT1)” value [2] was “A (EC1.5<1 μM)”.
For `C[C@@H](NC(=O)c1nc2c(cc1Cl)N1CC[C@@H](C1)N2C(=O)Nc1ccccn1)C(F)(F)F` [Example 280, (4S)-8-chloro-N5-(pyridin-2-yl)-N7-((R)-1,1,1-trifluoropropan-2-yl)-3,4-dihydro-1,4-methanopyrido[2,3-b][1,4]diazepine-5,7(2H)-dicarboxamide], the Emax [1] was over 150% and the “TRP Activity (EC1.5, concentration of test compound that results in 150% activation of SIRT1)” value [2] was “A (EC1.5<1 μM)”.
`Cc1ncc(-c2ccnc(NC(=O)N3c4nc(C(=O)N[C@H](C)C(F)(F)F)c(Cl)cc4N4CC[C@H]3C4)c2)o1` [Example 281, (4S)-8-chloro-N5-(4-(2-methyloxazol-5-yl)pyridin-2-yl)-N7-((R)-1,1,1-trifluoropropan-2-yl)-3,4-dihydro-1,4-methanopyrido[2,3-b][1,4]diazepine-5,7(2H)-dicarboxamide] was tested, and the Emax [1] was over 150% and the “TRP Activity (EC1.5, concentration of test compound that results in 150% activation of SIRT1)” value [2] was “B (EC1.5 1-25 μM)”.
With `C[C@@H](NC(=O)c1nc2c(cc1Cl)N1CC[C@@H](C1)N2C(=O)Nc1cc(-c2cnco2)ccn1)C(F)(F)F` [Example 282, (4S)-8-chloro-N5-(4-(oxazol-5-yl)pyridin-2-yl)-N7-((R)-1,1,1-trifluoropropan-2-yl)-3,4-dihydro-1,4-methanopyrido[2,3-b][1,4]diazepine-5,7(2H)-dicarboxamide] the Emax [1] was over 150% and the “TRP Activity (EC1.5, concentration of test compound that results in 150% activation of SIRT1)” value [2] was “A (EC1.5<1 μM)”.
`C[C@@H](NC(=O)c1nc2c(cc1F)N1CC[C@@H](C1)N2C(=O)Nc1cc(OC[C@H](O)CO)ccn1)C(F)(F)F` [Example 283, (4S)—N5-(4-((R)-2,3-dihydroxypropoxy)pyridin-2-yl)-8-fluoro-N7-((R)-1,1,1-trifluoropropan-2-yl)-3,4-dihydro-1,4-methanopyrido[2,3-b][1,4]diazepine-5,7(2H)-dicarboxamide] was tested, and the Emax [1] was over 150% and the “TRP Activity (EC1.5, concentration of test compound that results in 150% activation of SIRT1)” value [2] was “A (EC1.5<1 μM)”.
In the case of `COc1cc2c(nc1C(=O)NCC(F)(F)F)N(C(=O)Nc1ccccn1)[C@H]1CCN2C1` [Example 284, (4S)-8-methoxy-N5-(pyridin-2-yl)-N7-(2,2,2-trifluoroethyl)-3,4-dihydro-1,4-methanopyrido[2,3-b][1,4]diazepine-5,7(2H)-dicarboxamide], the Emax [1] is reported as over 150% and the “TRP Activity (EC1.5, concentration of test compound that results in 150% activation of SIRT1)” value [2] is reported as “A (EC1.5<1 μM)”.
With `O=C(NCC(F)(F)F)c1nc2c(cc1O)N1CC[C@@H](C1)N2C(=O)Nc1ccccn1` [Example 285, (4S)-8-hydroxy-N5-(pyridin-2-yl)-N7-(2,2,2-trifluoroethyl)-3,4-dihydro-1,4-methanopyrido[2,3-b][1,4]diazepine-5,7(2H)-dicarboxamide] the Emax [1] was over 150% and the “TRP Activity (EC1.5, concentration of test compound that results in 150% activation of SIRT1)” value [2] was “A (EC1.5<1 μM)”.
For `COc1cc(C(=O)NCC(F)(F)F)nc2c1N1CC[C@@H](C1)N2C(=O)Nc1ccccn1` [Example 286, (4S)-9-methoxy-N5-(pyridin-2-yl)-N7-(2,2,2-trifluoroethyl)-3,4-dihydro-1,4-methanopyrido[2,3-b][1,4]diazepine-5,7(2H)-dicarboxamide], the Emax was over 150% and the “TRP Activity (EC1.5, concentration of test compound that results in 150% activation of SIRT1)” value [2] was “A (EC1.5<1 μM)”.
For `Cc1cc(C(=O)NCC(F)(F)F)nc2c1N1CC[C@@H](C1)N2C(=O)Nc1ccccn1` [Example 287, (4S)-9-methyl-N5-(pyridin-2-yl)-N7-(2,2,2-trifluoroethyl)-3,4-dihydro-1,4-methanopyrido[2,3-b][1,4]diazepine-5,7(2H)-dicarboxamide], the Emax [1] was over 150% and the “TRP Activity (EC1.5, concentration of test compound that results in 150% activation of SIRT1)” value [2] was “A (EC1.5<1 μM)”.
For `Cc1cc(C(=O)N[C@H](C)C(F)(F)F)nc2c1N1CC[C@@H](C1)N2C(=O)Nc1ccccn1` [Example 288, (4S)-9-methyl-N5-(pyridin-2-yl)-N7-((R)-1,1,1-trifluoropropan-2-yl)-3,4-dihydro-1,4-methanopyrido[2,3-b][1,4]diazepine-5,7(2H)-dicarboxamide], the Emax [1] was over 150% and the “TRP Activity (EC1.5, concentration of test compound that results in 150% activation of SIRT1)” value [2] was “A (EC1.5<1 μM)”.
